Consider 4 molecules from patent publication US6844333B1, “Method of treating atherosclerosis” (The Trustees of the University of Pennsylvania, priority 1999, dated 2005).

One data set relates to human monocytes. In words: Inhibition of human monocyte/macrophage Fcγ receptor mediated phagocytosis. The format is cell-based. Conditions: 90 min at 37° C.; for % Phagocytic Cells (percent of monocytes/macrophages phagocytosing IgG sensitized cells): buffer control 42%; for PI (phagocytic index, ingested IgG-sensitized cells per 100 monocytes): buffer control 105. On the procedure: The agents to be tested (haloperidol, SCH-23390 and sulpiride) were incubated with human monocytes isolated using lymphocyte separation medium. Incubation was for 90 min at 37° C. Buffer (PBS) treated cells served as a control. At the end of the incubation period, monocytes were exposed to IgG-sensitized cells in accordance with the phagocytic assay of Indik et al, Blood 86:4389 (1995).

Data set [1] is described as follows: Quantitative serum lipid analysis (cholesterol, triglyceride) in cholesterol-fed rabbits. Conditions: change relative to control group; estriol 1 mg/kg; haloperidol 1/10/5 mg/kg s.c. daily. The format is in vivo, Male New Zealand White rabbits. From the text:
(§1) Serum lipid levels and I/M were expressed as the mean+SEM for all animals. The changes in lipid levels before and after the treatment period were compared using paired t-tests. The differences between the treatment groups and controls were compared using analysis of variance (ANOVA) techniques. Repeated Measures ANOVA was used to compare the difference in plaque loads among the five groups. Multiple regression models were used to compare the differences in plaque loads between the four treatment groups and the control group, adjusting for the difference in cholesterol and triglyceride levels. P<0.05 was considered statistically significant.

For data set [2] the following is noted: rabbit, in vivo.
Procedure: (§2) Male New Zealand White rabbits (3.2-4.9 pounds each) were fed a 0.5% cholesterol chow diet for 12 weeks and randomly assigned to five groups (n=6 each); one control group (CG) and four groups treated with estriol (E), haloperidol (H), low-dose 17-hydroxyprogesterone (LDP), or high-dose 17-hydroxyprogesterone (HDP). Serum cholesterol (C) and triglyceride (T) were measured before and after the treatment period in all groups; serum progesterone was determined only in the LDP and HDP groups. After the treatment period, rabbits were euthanized for histomorphometric analysis of aortic plaque load. The rabbits were treated according to the Animal Welfare Act specifications.
(§3) Vehicle only (CG) and vehicle plus steroid (treated groups) were administered daily subcutaneously. Steroid doses were as follows: estriol, 1 mg/kg; haloperidol, 1 mg/kg for 2 weeks, 10 mg/kg for 2 weeks, and 5 mg/kg for 8 weeks; low-dose 17-hydroxyprogesterone, 10 mg/kg; high-dose 17-hydroxyprogesterone, 90 mg/kg.
(§4) After 91-100 days of treatment, twenty-seven rabbits were euthanized for histomorphometric analysis of aortic plaque load.
Data set [3] can be described thus: Tolerability / survival during 12-week treatment. Conditions: E: after 18 days; H: at 39 and 71 days, failure to thrive; n=6 per group.
Procedure: as §2, §3, §4
Data set [4] concerns aortic atherosclerotic plaque in hypercholesterolemic rabbits. In words: Histomorphometric analysis of aortic plaque load (I/M). The format is in vivo, Male New Zealand White rabbits. Conditions: for aortic plaque load vs controls after controlling for changes in serum C and T levels (multiple regression): estriol 1 mg/kg (P=0.052), haloperidol 1/10/5 mg/kg (P=0.069); for (I/M)/(I/M)CG: relative to control group, estriol 1 mg/kg, haloperidol 1/10/5 mg/kg s.c. daily. On the procedure: Five-micron, serial histologic sections (15 each) of 27 ascending aortas were cut from paraffin blocks, stained with hematoxylin and eosin (H&E) and were studied by light microscopy. Images of tissue sections were captured to a Power Macintosh 7300/200 computer by a Hitachi 3-CCD Color Camera (model HV-C20) attached to a Nikon Eclipse E600 microscope. With digital imaging (IPLap Spectrum, Signal Analytics Corporation, Vienna, Va.), they were then analyzed by manual color segmentation by tracting the endothelial surface (intima), internal elastic lamina, and external elastic lamina of each vessel. From segmented images, intimal and medial areas were computed, allowing calculation of intima to media ratios. Plaque load for each aorta was defined as the ratio of intimal area to medial area (I/M).
as §1

For data set [5], the system named is aortic atherosclerosis in hypercholesterolemic rabbits. In words: Gross examination of the aortas (occlusion). The format is in vivo, Male New Zealand White rabbits. Conditions: treated animals vs control. From the text:
With the control animals, there was about 42% occlusion. With the low dose progesterone there was 6% occlusion and with the high dose progesterone there was 0% occlusion evident.

`O=C(CCCN1CCC(O)(c2ccc(Cl)cc2)CC1)c1ccc(F)cc1` [Haloperidol, haloperidol]: in the data set with human monocytes (50 μM PBS/methanol), the “% Phagocytic Cells (percent of monocytes/macrophages phagocytosing IgG sensitized cells)” value came out at 0% and the “PI (phagocytic index, ingested IgG-sensitized cells per 100 monocytes)” value is listed as 0. In data set [1], the “Cholesterol Δ/ΔCG” value was 0.86 and the “Triglyceride Δ/ΔCG” value worked out at 0.81. In addition, the “tolerance of dose by rabbits” value in data set [2] was “poor tolerance”. Moreover, in data set [3], the “rabbits that died or were sacrificed during treatment” value is reported as “two rabbits in he H group were sacrificed”. Further, in data set [4], the “aortic plaque load vs controls after controlling for changes in serum C and T levels (multiple regression)” value is recorded as “lower”; the “(I/M)/(I/M)CG” value stood at 0.29.

For `CCN1CCCC1CNC(=O)c1cc(S(N)(=O)=O)ccc1OC` (stereo not drawn) [Sulpiride, sulpiride], in the data set with human monocytes (500 μg/ml PBS/methanol), the “% Phagocytic Cells (percent of monocytes/macrophages phagocytosing IgG sensitized cells)” value was 59% and the “PI (phagocytic index, ingested IgG-sensitized cells per 100 monocytes)” value is reported as 232.

In the case of `CN1CCc2cc(Cl)c(O)cc2[C@@H](c2ccccc2)C1` [SCH-23390], in the data set with human monocytes (50 μM PBS/methanol), the “% Phagocytic Cells (percent of monocytes/macrophages phagocytosing IgG sensitized cells)” value is on record as 16% and the “PI (phagocytic index, ingested IgG-sensitized cells per 100 monocytes)” value was found to be 38.

On to `C[C@]12CC[C@@H]3c4ccc(O)cc4CC[C@H]3[C@@H]1C[C@@H](O)[C@@H]2O` [E, estriol], for which the “atherosclerosis on gross examination of the aortas (in words)” value in data set [5] is recorded as “decreased atherosclerosis”. For the same molecule, in data set [1], the “Cholesterol Δ/ΔCG” value was 0.71 and the “Triglyceride Δ/ΔCG” value is reported as −0.03. For the same molecule, the “rabbits that died or were sacrificed during treatment” value in data set [3] was “One rabbit in the E group died”. In addition, in data set [4], the “aortic plaque load vs controls after controlling for changes in serum C and T levels (multiple regression)” value is “lower”; the “(I/M)/(I/M)CG” value amounted to 0.02.
